# Laboratory results from patent US5357044A, “Cecropins fusion proteins” (Xoma Corporation, priority 1993, dated 1994).
# Ends that are not written are not given here.
# Tests used:
# Bacillus megaterium = conditions: background art; cited from earlier work
# E. coli 5506 DR = experiment: Bactericidal agar-well halo assay, E. coli 5506 DR; assay type: cell-based
# Procedure: (§1) Agar plates (8 cm in diameter) were prepared with 6 ml of TYE medium containing about 10^7 viable cells of test organism. Wells, 2 mm diameter, were punched in the plates. The test material was dissolved in 50 mM phosphate buffer (pH 6.6) and 3 ul was applied to each well. The diameters of the inhibition zones, or halos, around the wells were measured after overnight incubation at 25° C. To determine a standard of halo formation, CA 1-33 protein was used. 1 ug and 3 ug of CA 1-33 in well applications caused halos with diameters of 8 mm and 11 mm respectively, on media infused with E. coli strain JF568. 10 ug and 30 ug of cyanogen bromide-digested pCA3A araB-CA fusion protein caused halos with diameters 7 mm and 18 mm respectively.
# (§2) Cyanogen bromide-digested fusion protein fractionated by HPLC was also applied to this assay. […] Other bacterial and yeast strains were also tested in this assay. Cyanogen bromide-digested and undigested fusion protein samples were applied in the amounts described above in the testing of E. coli strain JF568, and the resulting halo diameters were measured.
# Streptococcus faecalis = experiment: Bactericidal agar-well halo assay, Streptococcus faecalis; assay type: cell-based; conditions: ampicillin 750 ng
# Procedure: as §1, §2
# Erwinia carotovora EC = experiment: Bactericidal agar-well halo assay, Erwinia carotovora EC; assay type: cell-based
# Procedure: as §1, §2
# Salmonella derby = experiment: Bactericidal agar-well halo assay, Salmonella derby; assay type: cell-based
# Procedure: as §1, §2
# E. coli 5506 = experiment: Bactericidal agar-well halo assay, E. coli 5506; assay type: cell-based
# Procedure: as §1, §2
# [1] = system: eight other species of bacteria; conditions: background art; cited from earlier work
# E. coli = conditions: background art; cited from earlier work
# Klebsiella pneumoniae = experiment: Bactericidal agar-well halo assay, Klebsiella pneumoniae; assay type: cell-based; conditions: CNBr-digested fusion protein isolate 5 ug
# Procedure: as §1, §2
# Pseudomonas PS-9 = experiment: Bactericidal agar-well halo assay, Pseudomonas PS-9; assay type: cell-based; conditions: CNBr-digested fusion protein isolate 5 ug
# Procedure: as §1, §2
# Serratia marcesens = experiment: Bactericidal agar-well halo assay, Serratia marcesens; assay type: cell-based; conditions: CNBr-digested fusion protein isolate 5 ug
# Procedure: as §1, §2
# Xenohabdus nematophillus = experiment: Bactericidal agar-well halo assay, Xenohabdus nematophillus; assay type: cell-based; conditions: CNBr-digested fusion protein isolate 5 ug
# Procedure: Cyanogen bromide-digested fusion protein fractionated by HPLC was also applied to this assay. […] Cyanogen bromide-digested and undigested fusion protein samples were applied in the amounts described above in the testing of E. coli strain JF568, and the resulting halo diameters were measured.
# [2] = CNBr-digested fusion protein isolate 5 ug
compound,measurement,setting,value
"cecropin B: natural antibacterial peptide purified from immune hemolymph; sequence shown in b10 (KWKVFKKIEKMGRNIRNGIVKAGPAIAVLGEAKAL; UniProt P01508 27-61, looked up)",sensitivity of the bacterium to the cecropin,Bacillus megaterium,highly sensitive
"CC1(C)S[C@@H]2[C@H](NC(=O)[C@H](N)c3ccccc3)C(=O)N2[C@H]1C(=O)O [Ampicillin, ampicillin]",Halo Activity in Millimeters,E. coli 5506 DR; ampicillin 750 ng,4.5 Millimeters
same,Halo Activity in Millimeters,Streptococcus faecalis,7.0 Millimeters
same,Halo Activity in Millimeters,Erwinia carotovora EC; ampicillin 750 ng,6.5 Millimeters
same,Halo Activity in Millimeters,Salmonella derby; ampicillin 750 ng,6.0 Millimeters
same,Halo Activity in Millimeters,E. coli 5506; ampicillin 750 ng,4.5 Millimeters
"cecropin A: natural antibacterial peptide purified from immune hemolymph of the Cecropia moth (KWKLFKKIEKVGQNIRDGIIKAGPAVAVVGQATQIAK; UniProt P01507 27-63, looked up)",sensitivity of the bacterium to the cecropin,Bacillus megaterium,highly sensitive
cecropin D,activity against eight other species of bacteria,[1],significantly reduced activity
same,activity against E. coli relative to cecropins A and B,E. coli,almost as much activity
same,sensitivity of the bacterium to the cecropin,Bacillus megaterium,relatively resistant
"pCA3D: CNBr-digested araB-CA fusion protein isolate from E. coli carrying plasmid pCA3D; releases wild type cecropin A (KWKLFKKIEKVGQNIRDGIIKAGPAVAVVGQATQIAK; ends and bridges not checked; UniProt P01507 27-63, looked up)",Halo Activity in Millimeters,E. coli 5506 DR; [2],6.5 Millimeters
same,Halo Activity in Millimeters,Klebsiella pneumoniae,4.5 Millimeters
same,Halo Activity in Millimeters,Erwinia carotovora EC; [2],4.75 Millimeters
same,Halo Activity in Millimeters,Pseudomonas PS-9,2.0 Millimeters
same,Halo Activity in Millimeters,Salmonella derby; [2],5.0 Millimeters
same,Halo Activity in Millimeters,Serratia marcesens,1.0 Millimeters
same,Halo Activity in Millimeters,Xenohabdus nematophillus,2.75 Millimeters
same,Halo Activity in Millimeters,E. coli 5506; [2],5.0 Millimeters
